Literature values in patent publication US20100104547A1, “TOPICAL COMPOSITION FOR THE TREATMENT OF ALLERGENIC EFFECTS” (priority 2005, published 2010).

B1: papain (protein, UniProt P00784 134-345, looked up)
Papain: IPEYVDWRQKGAVTPVKNQGSCGSCWAFSAVVTIEGIIKIRTGNLNEYSEQELLDCDRRSYGCNGGYPWSALQLVAQYGIHYRNTYPYEGVQRYCRSREKGPYAAKTDGVRQVQPYNEGALLYSIANQPVSVVLEAAGKDFQLYRGGIFVGPCGNKVDHAVAAVGYGPNYILIKNSWGTGWGENGYIRIKRGTGNSYGVCGLYTSSFYPVKN
notes: proteolytic enzyme, commonly in the form of meat tenderizer

Tests used:
[1] = topical application
[2] = mice, bee venom intradermal; test substance by intradermal injection or topical application

| Molecule | reducing the itch associated with mosquito and black fly bites [1] | inhibition of lesion development [2] |
| --- | --- | --- |
| pancreatin | effective |  |
| subtilisin | effective |  |
| B1 | effective | no marked inhibition |
